In the supplement of paper PMC10307832:

Legend:
Assay in all cases: relative viability (nuclei count vs DMSO), 5 days (fraction); higher = more cells survive
NCI-H2347 = test system: NCI-H2347
How it was run: (§1)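 Relative viability is defined as nuclei in treated wells over nuclei in vehicle wells. Duplicate plates were run and medians reported. Lung cancer cell lines in 1536-well plates were dosed by pin tool one day after seeding, with one drug or with a fixed anchor-drug dose plus five library-drug doses (not always all listed) in √10 steps, and nuclei were counted after 5 days.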

NCI-H520 = test system: NCI-H520
How it was run: as §1

NCI-H441 = test system: NCI-H441
How it was run: as §1

NCI-H1563 = test system: NCI-H1563
How it was run: as §1

COR-L23 = test system: COR-L23
How it was run: as §1

NCI-H1793 = test system: NCI-H1793
How it was run: as §1

201T = test system: 201T
How it was run: as §1

HCC-15 = test system: HCC-15
How it was run: as §1

EPLC-272H = test system: EPLC-272H
How it was run: as §1

NCI-H2023 = test system: NCI-H2023
How it was run: as §1

NCI-H647 = test system: NCI-H647
How it was run: as §1

UMC-11 = test system: UMC-11
How it was run: as §1

NCI-H2405 = test system: NCI-H2405
How it was run: as §1

H3255 = test system: H3255
How it was run: as §1

NCI-H3122 = test system: NCI-H3122
How it was run: as §1

NCI-H1734 = test system: NCI-H1734
How it was run: as §1

NCI-H2170 = test system: NCI-H2170
How it was run: as §1

NCI-H322M = test system: NCI-H322M
How it was run: as §1

PC-14 = test system: PC-14
How it was run: as §1

LOU-NH91 = test system: LOU-NH91
How it was run: as §1

Compound: Nc1ccn([C@@H]2O[C@H](CO)[C@@H](O)[C@@H]2O)c(=O)n1 [Cytarabine] + Cc1nc(NC(=O)N2CCC[C@H]2C(N)=O)sc1-c1ccnc(C(C)(C)C(F)(F)F)c1 [Alpelisib] (partner 2 µM)
- relative viability (NCI-H2347; first compound 0.005 µM): 1.22
- relative viability (NCI-H2347; first compound 0.01581 µM): 0.964
- relative viability (NCI-H2347; first compound 0.05 µM): 0.868
- relative viability (NCI-H2347; first compound 0.1581 µM): 0.691
- relative viability (NCI-H2347; first compound 0.5 µM): 0.663
- relative viability (NCI-H520; first compound 0.005 µM): 0.697
- relative viability (NCI-H520; first compound 0.01581 µM): 0.754
- relative viability (NCI-H520; first compound 0.05 µM): 0.858
- relative viability (NCI-H520; first compound 0.1581 µM): 0.688
- relative viability (NCI-H520; first compound 0.5 µM): 0.447
- relative viability (NCI-H441; first compound 0.005 µM): 0.542
- relative viability (NCI-H441; first compound 0.01581 µM): 0.49
- relative viability (NCI-H441; first compound 0.05 µM): 0.391
- relative viability (NCI-H441; first compound 0.5 µM): 0.165
- relative viability (NCI-H1563; first compound 0.005 µM): 0.938
- relative viability (NCI-H1563; first compound 0.01581 µM): 1.02
- relative viability (NCI-H1563; first compound 0.05 µM): 0.845
- relative viability (NCI-H1563; first compound 0.1581 µM): 0.888
- relative viability (NCI-H1563; first compound 0.5 µM): 0.663
- relative viability (COR-L23; first compound 0.005 µM): 0.63
- relative viability (COR-L23; first compound 0.01581 µM): 0.472
- relative viability (COR-L23; first compound 0.05 µM): 0.458
- relative viability (COR-L23; first compound 0.1581 µM): 0.176
- relative viability (COR-L23; first compound 0.5 µM): 0.104
- relative viability (NCI-H1793; first compound 0.005 µM): 0.573
- relative viability (NCI-H1793; first compound 0.01581 µM): 0.687
- relative viability (NCI-H1793; first compound 0.05 µM): 0.691
- relative viability (NCI-H1793; first compound 0.1581 µM): 0.389
- relative viability (NCI-H1793; first compound 0.5 µM): 0.251
- relative viability (201T; first compound 0.005 µM): 0.999
- relative viability (201T; first compound 0.01581 µM): 0.983
- relative viability (201T; first compound 0.05 µM): 1.02
- relative viability (201T; first compound 0.1581 µM): 0.887
- relative viability (201T; first compound 0.5 µM): 0.872
- relative viability (HCC-15; first compound 0.005 µM): 0.832
- relative viability (HCC-15; first compound 0.01581 µM): 0.878
- relative viability (HCC-15; first compound 0.05 µM): 0.844
- relative viability (HCC-15; first compound 0.1581 µM): 0.745
- relative viability (HCC-15; first compound 0.5 µM): 0.546
- relative viability (EPLC-272H; first compound 0.005 µM): 0.7
- relative viability (EPLC-272H; first compound 0.01581 µM): 0.781
- relative viability (EPLC-272H; first compound 0.05 µM): 0.609
- relative viability (EPLC-272H; first compound 0.1581 µM): 0.345
- relative viability (EPLC-272H; first compound 0.5 µM): 0.337
- relative viability (NCI-H2023; first compound 0.005 µM): 0.489
- relative viability (NCI-H2023; first compound 0.01581 µM): 0.391
- relative viability (NCI-H2023; first compound 0.05 µM): 0.182
- relative viability (NCI-H2023; first compound 0.1581 µM): 0.117
- relative viability (NCI-H2023; first compound 0.5 µM): 0.0764
- relative viability (NCI-H647; first compound 0.005 µM): 0.491
- relative viability (NCI-H647; first compound 0.01581 µM): 0.356
- relative viability (NCI-H647; first compound 0.05 µM): 0.142
- relative viability (NCI-H647; first compound 0.1581 µM): 0.086
- relative viability (NCI-H647; first compound 0.5 µM): 0.0694
- relative viability (UMC-11; first compound 0.005 µM): 0.496
- relative viability (UMC-11; first compound 0.01581 µM): 0.463
- relative viability (UMC-11; first compound 0.05 µM): 0.375
- relative viability (UMC-11; first compound 0.1581 µM): 0.192
- relative viability (UMC-11; first compound 0.5 µM): 0.18
- relative viability (NCI-H2405; first compound 0.005 µM): 0.771
- relative viability (NCI-H2405; first compound 0.01581 µM): 0.657
- relative viability (NCI-H2405; first compound 0.05 µM): 0.512
- relative viability (NCI-H2405; first compound 0.1581 µM): 0.527
- relative viability (NCI-H2405; first compound 0.5 µM): 0.301
- relative viability (H3255; first compound 0.005 µM): 0.757
- relative viability (H3255; first compound 0.01581 µM): 0.673
- relative viability (H3255; first compound 0.05 µM): 0.566
- relative viability (H3255; first compound 0.1581 µM): 0.524
- relative viability (H3255; first compound 0.5 µM): 0.469
- relative viability (NCI-H3122; first compound 0.005 µM): 0.673
- relative viability (NCI-H3122; first compound 0.01581 µM): 0.699
- relative viability (NCI-H3122; first compound 0.05 µM): 0.772
- relative viability (NCI-H3122; first compound 0.1581 µM): 0.464
- relative viability (NCI-H3122; first compound 0.5 µM): 0.424
- relative viability (NCI-H1734; first compound 0.005 µM): 0.39
- relative viability (NCI-H1734; first compound 0.01581 µM): 0.265
- relative viability (NCI-H1734; first compound 0.05 µM): 0.204
- relative viability (NCI-H1734; first compound 0.1581 µM): 0.139
- relative viability (NCI-H2170; first compound 0.01581 µM): 0.606
- relative viability (NCI-H2170; first compound 0.05 µM): 0.562
- relative viability (NCI-H2170; first compound 0.1581 µM): 0.389
- relative viability (NCI-H2170; first compound 0.5 µM): 0.314
- relative viability (NCI-H322M; first compound 0.005 µM): 0.68
- relative viability (NCI-H322M; first compound 0.01581 µM): 0.607
- relative viability (NCI-H322M; first compound 0.05 µM): 0.529
- relative viability (NCI-H322M; first compound 0.1581 µM): 0.283
- relative viability (NCI-H322M; first compound 0.5 µM): 0.291
- relative viability (PC-14; first compound 0.005 µM): 0.838
- relative viability (PC-14; first compound 0.01581 µM): 1.13
- relative viability (PC-14; first compound 0.05 µM): 1.05
- relative viability (PC-14; first compound 0.1581 µM): 0.512
- relative viability (PC-14; first compound 0.5 µM): 0.357
- relative viability (LOU-NH91; first compound 0.005 µM): 0.708
- relative viability (LOU-NH91; first compound 0.01581 µM): 0.695
- relative viability (LOU-NH91; first compound 0.05 µM): 0.603
- relative viability (LOU-NH91; first compound 0.1581 µM): 0.425
- relative viability (LOU-NH91; first compound 0.5 µM): 0.462
